Inconclusive results and toxic doses are left out.
Tested on: L1210 leukemia ip in BDF1 mice, survival T/C
Assay: NCI In Vivo Anticancer Drug Screen. Data for tumor model L1210 Leukemia (intraperitoneal) in B6D2F1 (BDF1) mice
Settings: endpoint: mean survival time, higher = longer survival
Outline: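 Antitumor effect is assessed in tumor-bearing animals. Survival in the compound arm is compared with a vehicle-dosed control arm and expressed as their quotient.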

[1] = dose: 100.0 mg/kg/injection, schedule: Q01DX001 (ip), vehicle: saline with Tween-80
[2] = dose: 100.0 mg/kg/injection, schedule: Q04DX003 (ip), vehicle: saline with Tween-80
[3] = dose: 200.0 mg/kg/injection, schedule: Q01DX001 (ip), vehicle: saline with Tween-80
[4] = dose: 200.0 mg/kg/injection, schedule: Q04DX003 (ip), vehicle: saline with Tween-80
[5] = dose: 400.0 mg/kg/injection, schedule: Q01DX001 (ip), vehicle: saline with Tween-80
[6] = dose: 400.0 mg/kg/injection, schedule: Q01DX009 (ip), vehicle: saline with Tween-80
[7] = dose: 400.0 mg/kg/injection, schedule: Q04DX003 (ip), vehicle: saline with Tween-80
[8] = dose: 100.0 mg/kg/injection, schedule: Q04DX002 (ip), vehicle: saline
[9] = dose: 200.0 mg/kg/injection, schedule: Q04DX002 (ip), vehicle: saline
[10] = dose: 400.0 mg/kg/injection, schedule: Q04DX002 (ip), vehicle: saline
[11] = dose: 50.0 mg/kg/injection, schedule: Q04DX002 (ip), vehicle: saline
[12] = dose: 100.0 mg/kg/injection, schedule: Q04DX003 (ip), vehicle: Klucel (hydroxypropylcellulose) (HPC)
[13] = dose: 100.0 mg/kg/injection, schedule: Q01DX001 (ip), vehicle: Klucel (hydroxypropylcellulose) (HPC)
[14] = dose: 200.0 mg/kg/injection, schedule: Q01DX001 (ip), vehicle: Klucel (hydroxypropylcellulose) (HPC)
[15] = dose: 400.0 mg/kg/injection, schedule: Q01DX001 (ip), vehicle: Klucel (hydroxypropylcellulose) (HPC)
[16] = dose: 100.0 mg/kg/injection, schedule: Q01DX009 (ip), vehicle: saline with Tween-80
[17] = dose: 200.0 mg/kg/injection, schedule: Q01DX009 (ip), vehicle: saline with Tween-80

For CN(C)N=Nc1ccc([N+](=O)[O-])cc1C(N)=O, which T/C [1] is on record?
Its T/C is 117 % of control.

What about the T/C (dose: 100.0 mg/kg/injection, schedule: Q01DX007 (ip), vehicle: saline with Tween-80) of the same molecule?
The T/C was 124 % of control.

What about the T/C [2] of the same molecule?
The T/C was 108 % of control.

And the T/C (dose: 180.0 mg/kg/injection, schedule: Q01DX009 (ip), vehicle: saline with Tween-80)?
The T/C was 170 % of control.

What about the T/C [3] of the same molecule?
Its T/C is 104 % of control.

What about the T/C [4] of the same molecule?
Its T/C is 105 % of control.

And the T/C (dose: 268.0 mg/kg/injection, schedule: Q01DX009 (ip), vehicle: saline with Tween-80)?
The T/C was 167 % of control.

And the T/C [5]?
Its T/C is 108 % of control.

What about the T/C (dose: 400.0 mg/kg/injection, schedule: Q01DX007 (ip), vehicle: saline with Tween-80) of the same molecule?
Its T/C is 154 % of control.

And the T/C [6]?
The T/C was 122 % of control.

What about the T/C [7] of the same molecule?
Its T/C is 117 % of control.

What about the T/C (dose: 600.0 mg/kg/injection, schedule: Q01DX009 (ip), vehicle: saline with Tween-80) of the same molecule?
Its T/C is 90 % of control.

For COc1ccc(NC(=O)c2cc3ccccc3cc2OC(=O)NC(C)(C)C)cc1, which T/C [8] is on record?
The T/C was 103 % of control.

And the T/C [9]?
Its T/C is 113 % of control.

What about the T/C [10] of the same molecule?
Its T/C is 97 % of control.

With CC1CN=C(c2ccc(O)c(O)c2O)S1 (stereo unspecified) as the molecule, how does the T/C (dose: 75.0 mg/kg/injection, schedule: Q04DX002 (ip), vehicle: saline with Tween-80) read?
The T/C was 101 % of control.

And the T/C (dose: 150.0 mg/kg/injection, schedule: Q04DX002 (ip), vehicle: saline with Tween-80)?
Its T/C is 101 % of control.

What about the T/C (dose: 300.0 mg/kg/injection, schedule: Q04DX002 (ip), vehicle: saline with Tween-80) of the same molecule?
The T/C was 93 % of control.

CCC(NCC(C)C)NCC(C)C was tested. Which T/C (dose: 12.5 mg/kg/injection, schedule: Q04DX003 (ip), vehicle: saline) did it give?
Its T/C is 91 % of control.

And the T/C (dose: 25.0 mg/kg/injection, schedule: Q04DX003 (ip), vehicle: saline)?
The T/C was 105 % of control.

What about the T/C (dose: 50.0 mg/kg/injection, schedule: Q04DX003 (ip), vehicle: saline) of the same molecule?
The T/C was 86 % of control.

Which results are given for C/C(=N/N=C(N)N)C(C)C?
T/C (dose: 15.0 mg/kg/injection, schedule: Q01DX Z (ip), vehicle: carboxymethylcellulose (CMC)): 102 % of control; T/C (dose: 27.0 mg/kg/injection, schedule: Q01DX Z (oral), vehicle: carboxymethylcellulose (CMC)): 95 % of control; T/C (dose: 30.0 mg/kg/injection, schedule: Q01DX Z (ip), vehicle: carboxymethylcellulose (CMC)): 100 % of control; T/C (dose: 40.0 mg/kg/injection, schedule: Q01DX Z (oral), vehicle: carboxymethylcellulose (CMC)): 98 % of control; T/C (dose: 60.0 mg/kg/injection, schedule: Q01DX Z (ip), vehicle: carboxymethylcellulose (CMC)): 92 % of control; T/C (dose: 60.0 mg/kg/injection, schedule: Q01DX Z (oral), vehicle: carboxymethylcellulose (CMC)): 106 % of control; T/C (dose: 90.0 mg/kg/injection, schedule: Q01DX Z (oral), vehicle: carboxymethylcellulose (CMC)): 98 % of control; T/C (dose: 120.0 mg/kg/injection, schedule: Q01DX Z (oral), vehicle: carboxymethylcellulose (CMC)): 101 % of control; T/C (dose: 135.0 mg/kg/injection, schedule: Q01DX Z (oral), vehicle: carboxymethylcellulose (CMC)): 97 % of control

With CCOC(=O)NCC(CCN1CCCC1)(CCN1CCCC1)c1cccc2ccccc12 as the molecule, how does the T/C (dose: 25.0 mg/kg/injection, schedule: Q04DX002 (ip), vehicle: saline) read?
The T/C was 101 % of control.

And the T/C [11]?
The T/C was 93 % of control.

Which results are given for Cc1ccc(N2C(=O)c3cc4ccccc4c(-c4ccccn4)c3C2=O)cc1?
T/C (dose: 12.5 mg/kg/injection, schedule: Q04DX003 (ip), vehicle: Klucel (hydroxypropylcellulose) (HPC)): 103 % of control; T/C (dose: 25.0 mg/kg/injection, schedule: Q04DX003 (ip), vehicle: Klucel (hydroxypropylcellulose) (HPC)): 103 % of control; T/C (dose: 50.0 mg/kg/injection, schedule: Q04DX003 (ip), vehicle: Klucel (hydroxypropylcellulose) (HPC)): 103 % of control; T/C [12]: 94 % of control

Which T/C (dose: 1.25 mg/kg/injection, schedule: Q01DX009 (ip), vehicle: saline) does the source give for C/C=C/C1=C(Cl)C(=O)[C@@H](Cl)[C@@]1(O)C(=O)OC here?
Its T/C is 101 % of control.

What about the T/C (dose: 2.5 mg/kg/injection, schedule: Q01DX009 (ip), vehicle: saline) of the same molecule?
Its T/C is 97 % of control.

And the T/C (dose: 2.5 mg/kg/injection, schedule: Q04DX003 (ip), vehicle: saline)?
The T/C was 101 % of control.

And the T/C (dose: 5.0 mg/kg/injection, schedule: Q01DX009 (ip), vehicle: saline)?
Its T/C is 103 % of control.

What about the T/C (dose: 5.0 mg/kg/injection, schedule: Q04DX003 (ip), vehicle: saline) of the same molecule?
The T/C was 95 % of control.

And the T/C (dose: 10.0 mg/kg/injection, schedule: Q01DX001 (ip), vehicle: saline)?
Its T/C is 94 % of control.

And the T/C (dose: 10.0 mg/kg/injection, schedule: Q04DX003 (ip), vehicle: saline)?
The T/C was 100 % of control.

What does the source list for c1ccc(CCSCCCSCCc2ccccn2)nc1?
T/C [11]: 98 % of control; T/C [8]: 98 % of control; T/C [9]: 92 % of control; T/C [10]: 95 % of control

Which results are given for O=[N+]([O-])c1cc(Br)c(Br)cc1Br?
T/C [13]: 106 % of control; T/C (dose: 100.0 mg/kg/injection, schedule: Q01DX009 (ip), vehicle: Klucel (hydroxypropylcellulose) (HPC)): 97 % of control; T/C [14]: 101 % of control; T/C (dose: 200.0 mg/kg/injection, schedule: Q01DX009 (ip), vehicle: Klucel (hydroxypropylcellulose) (HPC)): 96 % of control; T/C [15]: 101 % of control

How did the T/C [2] turn out when Cc1cccn1C(C)c1ccccc1 (stereo unspecified) was run?
Its T/C is 97 % of control.

What about the T/C [4] of the same molecule?
Its T/C is 94 % of control.

What about the T/C [7] of the same molecule?
The T/C was 97 % of control.

For Cc1ccc(NCC2(/N=C/c3ccccc3)OC(CO)C(O)C2O)cc1 (stereo unspecified), which T/C (dose: 100.0 mg/kg/injection, schedule: Q04DX002 (ip), vehicle: Klucel (hydroxypropylcellulose) (HPC)) is on record?
The T/C was 97 % of control.

What about the T/C (dose: 200.0 mg/kg/injection, schedule: Q04DX002 (ip), vehicle: Klucel (hydroxypropylcellulose) (HPC)) of the same molecule?
The T/C was 102 % of control.

And the T/C (dose: 400.0 mg/kg/injection, schedule: Q04DX002 (ip), vehicle: Klucel (hydroxypropylcellulose) (HPC))?
Its T/C is 102 % of control.

What does the source list for CCOC(=O)C1(CCC#N)CC(C#N)(c2ccccc2)CCC1=O (stereo unspecified)?
T/C (dose: 100.0 mg/kg/injection, schedule: Q04DX003 (ip), vehicle: acetone): 98 % of control; T/C (dose: 200.0 mg/kg/injection, schedule: Q04DX003 (ip), vehicle: acetone): 90 % of control; T/C (dose: 400.0 mg/kg/injection, schedule: Q04DX003 (ip), vehicle: acetone): 93 % of control

c1ccc2c(c1)[nH]c1cc3ccncc3cc12 was tested. Which T/C (dose: 50.0 mg/kg/injection, schedule: Q01DX001 (ip), vehicle: saline) did it give?
The T/C was 100 % of control.

And the T/C [13]?
The T/C was 94 % of control.

And the T/C (dose: 100.0 mg/kg/injection, schedule: Q01DX001 (ip), vehicle: saline)?
Its T/C is 94 % of control.

And the T/C [12]?
Its T/C is 93 % of control.

What about the T/C [14] of the same molecule?
The T/C was 96 % of control.

What about the T/C (dose: 200.0 mg/kg/injection, schedule: Q01DX001 (ip), vehicle: saline) of the same molecule?
Its T/C is 98 % of control.

And the T/C (dose: 200.0 mg/kg/injection, schedule: Q04DX003 (ip), vehicle: Klucel (hydroxypropylcellulose) (HPC))?
The T/C was 93 % of control.

And the T/C [15]?
Its T/C is 92 % of control.

And the T/C (dose: 400.0 mg/kg/injection, schedule: Q01DX001 (ip), vehicle: saline)?
Its T/C is 96 % of control.

And the T/C (dose: 400.0 mg/kg/injection, schedule: Q04DX003 (ip), vehicle: Klucel (hydroxypropylcellulose) (HPC))?
Its T/C is 91 % of control.

Which T/C [16] does the source give for Cn1cccc1C=O here?
The T/C was 102 % of control.

And the T/C [17]?
Its T/C is 100 % of control.

What about the T/C [6] of the same molecule?
The T/C was 97 % of control.

For CC(=O)CC(O)(C(F)(F)F)C(F)(F)F, which T/C (dose: 100.0 mg/kg/injection, schedule: Q01DX009 (ip), vehicle: saline) is on record?
The T/C was 105 % of control.

What about the T/C (dose: 200.0 mg/kg/injection, schedule: Q01DX009 (ip), vehicle: saline) of the same molecule?
The T/C was 101 % of control.

And the T/C (dose: 400.0 mg/kg/injection, schedule: Q01DX009 (ip), vehicle: saline)?
The T/C was 93 % of control.

Which results are given for CCCCCCCCP(=S)(CCCCCC)CCCCCC?
T/C [1]: 104 % of control; T/C [3]: 90 % of control; T/C [5]: 87 % of control

CCC#CC(O)(C(=O)OC)c1ccccc1 (stereo unspecified) was tested. Which T/C (dose: 100.0 mg/kg/injection, schedule: Q01DX001 (ip), vehicle: carboxymethylcellulose (CMC)) did it give?
The T/C was 100 % of control.

What about the T/C (dose: 200.0 mg/kg/injection, schedule: Q01DX001 (ip), vehicle: carboxymethylcellulose (CMC)) of the same molecule?
Its T/C is 108 % of control.

And the T/C (dose: 400.0 mg/kg/injection, schedule: Q01DX001 (ip), vehicle: carboxymethylcellulose (CMC))?
Its T/C is 96 % of control.

With CCc1nc(-c2ccccc2)c(-c2ccccc2)[nH]1 as the molecule, how does the T/C [16] read?
The T/C was 90 % of control.

And the T/C [17]?
Its T/C is 98 % of control.

And the T/C [6]?
The T/C was 87 % of control.
